Source: article PMC6572376, “N1-Propargylguanosine Modified mRNA Cap Analogs: Synthesis, Reactivity, and Applications to the Study of Cap-Binding Proteins” (Molecules, 2019)

Assays:
murine eIF4E = murine eIF4E (Mus musculus, UniProt P63073); test: Pyrene fluorescence intensity competition binding assay for eIF4E
Text: The prime role of the mRNA cap is to participate in initiation of translation through binding with eIF4E. Therefore, we investigated how the substitution at the N1 position influences the interaction between the cap analogs and eIF4E. To this end, we performed binding competition experiments with a Py-labeled m^7GTP analog as previously described. Thence, we determined IC50 values and calculated binding constants values (KD) for the cap analog-eIF4E complexes (Table 1, Figure 2). […] Additionally, the differences identified among studied compounds derived from triphosphate chain modifications were in agreement with previously published results.
A previously described pyrene fluorescence intensity binding method was used to determine the dissociation constants of the nonfluorescent ligands binding to the eIF4E protein in a competitive binding experiment. The experiments were performed in 96-well, black, non-binding assay plates with point fluorescence measurements (λexc = 345 nm; λem = 378 nm). Each well contained a buffer (50 mM Hepes/KOH pH = 7.2 containing 100 mM KCl and 0.5 mM EDTA), 10 nM of pyrene-labeled 7-methylguanosine pentaphosphate probe, ligand 1–5 or m^7Gp3G (half-log dilutions of Clig from 100 μM to 0.003 μM), and 75 nM of eIF4E protein. The reagents and added protein were pre-incubated for 15 min at 30 °C and stirred at 300 rpm. Measurements were performed in three different temperatures: At 20, 30, and 37 °C. A previously derived Equation (1) was used to calculate the inhibition (dissociation) constant KI of a competitive ligand according to the dependence of the recorded fluorescence intensity on the inhibitor concentration. (1) KI=IC50−[Pt]+[PL]50(KD/[L]50+1)/[L]50/KD+[P]0/KD+1 where IC50 is the inhibitor concentration required to replace 50% of the fluorescent probe from the protein binding site, [Pt] is the total protein concentration, [PL]50 is the protein–probe complex concentration at 50% inhibition, [L]50 is the free probe concentration at 50% inhibition, and [P]0 is the free protein concentration without inhibition.
In order to determine IC50 value, we used Origin® 2017 (OriginLab Corp., Northampton, MA, USA) software to fit the curve described by the derived Equation (2) to the measured fluorescence intensity values for various inhibitor concentrations. (2) F=F0Fmax−F0/1+10^(log(IC50)−log(Clig.))p where Clig. is the concentration of non-fluorescent ligand.
Figure 2 Dose–response curves for compounds 1–5 and m^7Gp3G plotted from a competition binding assay for meIF4E [16]. eIF4E (75 nM) and a pyrene-labeled fluorescent probe (10 nM) were incubated at 30 °C with the indicated concentrations of the investigated compounds (1–5 or m^7Gp3G as a reference).

[1] = target: T1, human decapping scavenger enzyme (hDcpS) (Homo sapiens, UniProt Q96C86); test: in vitro; conditions: pH 7.6
T1 sequence (Q96C86 1-337): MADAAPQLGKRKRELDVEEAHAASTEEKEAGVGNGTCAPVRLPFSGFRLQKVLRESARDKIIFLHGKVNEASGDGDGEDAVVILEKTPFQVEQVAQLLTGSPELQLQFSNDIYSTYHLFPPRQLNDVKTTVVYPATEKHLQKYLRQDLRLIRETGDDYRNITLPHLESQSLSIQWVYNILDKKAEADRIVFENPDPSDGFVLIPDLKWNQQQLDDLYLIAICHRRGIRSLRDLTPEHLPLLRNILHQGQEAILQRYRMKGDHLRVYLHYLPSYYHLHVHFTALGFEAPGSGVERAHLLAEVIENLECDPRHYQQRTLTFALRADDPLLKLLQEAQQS
Description: (§2) Susceptibility of the new cap analogs to hydrolysis by human decapping scavenger enzyme (hDcpS) was investigated to assess the influence of N1 substitution on cap analogs recognition by DcpS. Caps 1–5 or m^7Gp3G (30 µM each) were incubated with hDcpS (30 nM) at 30 °C. Then, reaction samples were thermally deactivated and analyzed by RP-HPLC.
(§3) Enzymatic reactions with human DcpS were carried out in 50 mM Tris/HCl, 200 mM KCl, 0.5 mM EDTA, pH = 7.6 buffer at 30 °C for 30 nM hDcpS and 30 µM of a cap analog studied. As a control, m^7Gp3G was used. Cap analogs concentration was determined spectrophotometrically (absorption coefficient used in calculations is equal to 22,600 mL/mmol/cm in 0.1 M phosphate buffer pH = 7.0). For 1 and m^7Gp3G, 3 independent experiments were performed. Aliquots were terminated by heat inactivation for 3 min at 95 °C. Samples were analyzed with RP-HPLC using method E.
(§4) Data are average of triplicate experiments ± SD.

[2] = target: T1, human decapping scavenger enzyme (hDcpS); test: Susceptibility to hDcpS hydrolysis monitored by RP-HPLC; conditions: 30 µM cap analog, 30 nM hDcpS, 30 °C
Description: as §2, §3, §4

murine eIF4E (meIF4E) = murine eIF4E (meIF4E) (Mus musculus, UniProt P63073); test: Microscale thermophoresis direct binding to meIF4E; conditions: MST, 25 nM probe, 25 °C, 1:1 binding model, triplicate
Sequence of murine eIF4E (meIF4E) (P63073 whole entry): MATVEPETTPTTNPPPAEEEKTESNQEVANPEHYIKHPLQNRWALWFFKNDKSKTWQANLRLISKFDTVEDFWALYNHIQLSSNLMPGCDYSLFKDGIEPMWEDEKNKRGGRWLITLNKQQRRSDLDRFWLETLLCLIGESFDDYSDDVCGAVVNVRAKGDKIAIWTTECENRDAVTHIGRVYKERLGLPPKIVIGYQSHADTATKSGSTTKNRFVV
Description: To this end, fluorescent probes (25 nM) were mixed with increasing concentrations of meIF4E and microscale thermophoresis was measured for each sample (Figure S5). Baseline corrected normalized fluorescences (ΔFn) determined from the MST traces were plotted as a function of protein concentration. KD values could then be calculated from the resulting binding curves (Figure 5). […] These findings align with those determined for the parent compounds 1, 2, and 3 (Table 1).
Probes 6, 11, and 12 were dissolved in MST buffer (50 mM HEPES/KOH, 100 mM KCl, 0.5 mM EDTA, pH = 7.2, 0.2% Tween 20) to obtain a 50 nM stock solution. Murine eIF4E (meIF4E) was dissolved in MST buffer in a 16 point, 1:1 dilution series in a 10.0 µM to 0.30 nM concentration range. Equal volumes (10 µL) of meIF4E and probe were combined to obtain the following assay concentrations: 25 nM probe and 5.0 µM to 0.15 nM meIF4E for the assay.
(§1) For both assays, samples were loaded into standard Monolith™ NT.115 Series Capillares (NanoTemper Technologies, Cambridge, MA, USA). MST measurements were performed on Monolith NT.115 instrument (NanoTemper Technologies, Cambridge, MA, USA) at 25 °C. Measurements parameters were set as follows: 40% LED Blue power, Medium MST power. Data were obtained for three independently pipetted measurements and analyzed in PALMIST v. 1.4.4 [36] using a 1:1 binding model to calculate KD, using the signal from an MST-on time of 20 s (for eIF4E assay: Cold region start, −3 s; hot region start, 0.5 s; for DcpS assay: Cold region start, −3 s; hot region start 19 s), confidence intervals were calculated with error surface projection (ESP) method. Plots presented were generated using GUSSI v. 1.4.2 [37].
Figure 5 Direct binding microscale thermophoresis (MST) experiments with eIF4E and DcpS. (a) MST binding curves for probes 6, 11, 12, and meIF4E. Probe 6, 11, or 12 (50 nM) was mixed with a half-log dilution series of an meIF4E solution (10 µM–0.30 nM). (b) MST binding curves for probes 11 and 12 and DcpS. […] Data were analyzed in Palmist v. […]

human DcpS (hDcpS) = target: T2, human DcpS (hDcpS) (Homo sapiens, UniProt Q96C86); test: Microscale thermophoresis direct binding to hDcpS; conditions: for Kd: MST, 25 nM probe, 25 °C, 1:1 binding model, triplicate
T2 construct: made in house
T2 sequence (Q96C86 1-337): T1 sequence (Q96C86 1-337)
Description: With these promising results in mind, we decided to use the same approach for studying DcpS enzyme. For this purpose, cleavage-resistant probes 11 and 12 were used. Both probes were high-affinity ligands for DcpS. […] This is in agreement with previously reported data on the influence of triphosphate chain modifications on cap-DcpS interaction.
Probes 11 and 12 were dissolved in MST buffer (50 mM HEPES/KOH, 100 mM KCl, 0.5 mM EDTA, pH = 7.2, 0.2% Tween 20) to obtain a 50 nM stock solution. In study of a probe 11, human DcpS (hDcpS) was dissolved in MST buffer in a 16 point 1:1 dilution series in a 2.0 µM to 0.061 nM concentration range. Equal volumes (10 µL) of hDcpS and the probe were mixed together to obtain the following assay concentrations: 25 nM probe and 1.0 µM to 0.030 nM hDcpS. In study of a probe 12, hDcpS was dissolved in MST buffer in a 16 point 2:1 dilution series in a 700 nM to 1.60 nM concentration range. Equal volumes (10 µL) of hDcpS and the probe were mixed together to obtain the following assay concentrations: 25 nM probe and 350 nM to 0.80 nM hDcpS.
as §1
Figure 5 Direct binding microscale thermophoresis (MST) experiments with eIF4E and DcpS. (a) MST binding curves for probes 6, 11, 12, and meIF4E. […] Data were analyzed in Palmist v. […]

[3] = 30 °C, 75 nM eIF4E, 10 nM pyrene-labeled probe, triplicate
[4] = 30 °C, calculated from IC50 values

Sequence of murine eIF4E (P63073 whole entry): as above

Row | SMILES | IC50 (murine eIF4E; 20 °C) [µM] | Kd (murine eIF4E; 20 °C, calculated from IC50) [nM] | IC50 (murine eIF4E; [3]) [µM] | Kd (murine eIF4E; [4]) [nM] | IC50 (murine eIF4E; 37 °C) [µM] | Kd (murine eIF4E; 37 °C, calculated from IC50) [nM] | half-life at 30 µM [1] [min] | Kd (murine eIF4E (meIF4E)) [nM] | Kd (human DcpS (hDcpS)) [nM] | Fold greater affinity for DcpS than probe 11 (human DcpS (hDcpS); MST KD ratio) [fold] | Half-life [2] [min] | Susceptibility to hydrolysis by hDcpS ([2]; RP-HPLC)
1 | C#CCn1c(N)nc2c(ncn2C2OC(COP(=O)(O)OP(=O)([O-])OP(=O)(O)OCC3OC(n4c[n+](C)c5c(O)nc(N)nc54)C(O)C3O)C(O)C2O)c1=O (stereo not drawn) [Compound 1, P1-(N1-Propargylguanosin-5′-yl) P3-(N7-methylguanosin-5′-yl) triphosphate] | 2.92 ± 0.19 | 268 ± 40 | 3.57 ± 0.25 | 305 ± 45 | 3.68 ± 0.7 | 371 ± 82 | 15.8 | – | – | – | – | efficiently cleaved by DcpS but more slowly than m^7Gp3G
2 | C#CCn1c(N)nc2c(ncn2C2OC(COP(=O)([O-])OP(=O)(O)CP(=O)(O)OCC3OC(n4c[n+](C)c5c(O)nc(N)nc54)C(O)C3O)C(O)C2O)c1=O (stereo not drawn) [Compound 2, P1-(N7-Methylguanosin-5′-yl) P3-(N1-propargylguanosin-5′-yl) 1,2-methylenetriphosphate] | 6.57 ± 0.49 | 610 ± 94 | 6.37 ± 0.73 | 548 ± 95 | 8.2 ± 0.79 | 836 ± 121 | – | – | – | – | – | –
3 | C[n+]1cn([C@@H]2O[C@H](COP(=O)(O)NP(=O)(O)OP(=O)([O-])OC[C@H]3O[C@@H](n4cnc5c(=O)n(Cc6cn(CCCNC(=O)c7ccc8c(c7)C(=O)OC87c8ccc(O)cc8Oc8cc(O)ccc87)nn6)c(N)nc54)[C@H](O)[C@@H]3O)[C@@H](O)[C@H]2O)c2nc(N)nc(O)c21 [Compound 12, m^7GpNHppG-N1-5FAM] | – | – | – | – | – | – | – | 53 | 14 | 2.5 | – | –
4 | Cn1c[n+]([C@@H]2O[C@H](COP(=O)(O)OP(=O)(O)OP(=O)(O)OC[C@H]3O[C@@H](n4cnc5c(=O)[nH]c(N)nc54)[C@H](O)[C@@H]3O)[C@@H](O)[C@H]2O)c2nc(N)[nH]c(=O)c21 [m^7Gp3G, reference compound] | 3.04 ± 0.26 | 279 ± 45 | 3.46 ± 0.3 | 294 ± 46 | 3.31 ± 0.87 | 334 ± 96 | – | – | – | – | 5.703 | –

Second part, led by results:

Row | IC50 (murine eIF4E; 20 °C) [µM] | Kd (murine eIF4E; 20 °C, calculated from IC50) [nM] | IC50 (murine eIF4E; [3]) [µM] | Kd (murine eIF4E; [4]) [nM] | IC50 (murine eIF4E; 37 °C) [µM] | Kd (murine eIF4E; 37 °C, calculated from IC50) [nM] | half-life at 30 µM [1] [min] | Kd (murine eIF4E (meIF4E)) [nM] | Kd (human DcpS (hDcpS)) [nM] | Fold greater affinity for DcpS than probe 11 (human DcpS (hDcpS); MST KD ratio) [fold] | Half-life [2] [min] | SMILES | Susceptibility to hydrolysis by hDcpS ([2]; RP-HPLC)
5 | 3.06 ± 0.16 | 281 ± 41 | 3.48 ± 0.22 | 297 ± 43 | 3.75 ± 0.89 | 379 ± 100 | – | – | – | – | – | C#CCn1c(N)nc2c(ncn2C2OC(COP(=O)([O-])OP(=O)(O)NP(=O)(O)OCC3OC(n4c[n+](C)c5c(O)nc(N)nc54)C(O)C3O)C(O)C2O)c1=O (stereo not drawn) [Compound 3, P1-(N7-Methylguanosin-5′-yl) P3-(N1-propargylguanosin-5′-yl) 1,2-imidotriphosphate] | –
6 | 5.51 ± 0.33 | 511 ± 75 | 6.04 ± 0.46 | 520 ± 78 | 8.1 ± 0.61 | 826 ± 109 | – | – | – | – | – | C#CCn1c(N)nc2c(ncn2C2OC(COP(=O)(O)CP(=O)(O)OP(=O)([O-])OCC3OC(n4c[n+](C)c5c(O)nc(N)nc54)C(O)C3O)C(O)C2O)c1=O (stereo not drawn) [Compound 4, P1-(N7-Methylguanosin-5′-yl) P3-(N1-propargylguanosin-5′-yl) 2,3-methylenetriphosphate] | –
7 | 1.85 ± 0.15 | 168 ± 26 | 2.16 ± 0.2 | 182 ± 29 | 3.21 ± 0.33 | 324 ± 48 | – | – | – | – | – | C#CCn1c(N)nc2c(ncn2C2OC(COP(=O)(O)NP(=O)(O)OP(=O)([O-])OCC3OC(n4c[n+](C)c5c(O)nc(N)nc54)C(O)C3O)C(O)C2O)c1=O (stereo not drawn) [Compound 5, P1-(N7-Methylguanosin-5′-yl) P3-(N1-propargylguanosin-5′-yl) 2,3-imidotriphosphate] | –
8 | – | – | – | – | – | – | – | 50 | – | – | – | C[n+]1cn([C@@H]2O[C@H](COP(=O)(O)OP(=O)([O-])OP(=O)(O)OC[C@H]3O[C@@H](n4cnc5c(=O)n(Cc6cn(CCCNC(=O)c7ccc8c(c7)C(=O)OC87c8ccc(O)cc8Oc8cc(O)ccc87)nn6)c(N)nc54)[C@H](O)[C@@H]3O)[C@@H](O)[C@H]2O)c2nc(N)nc(O)c21 [Compound 6, m^7Gp3G-N1-5FAM] | –
9 | – | – | – | – | – | – | – | 201 | 38 | – | – | C[n+]1cn([C@@H]2O[C@H](COP(=O)(O)CP(=O)(O)OP(=O)([O-])OC[C@H]3O[C@@H](n4cnc5c(=O)n(Cc6cn(CCCNC(=O)c7ccc8c(c7)C(=O)OC87c8ccc(O)cc8Oc8cc(O)ccc87)nn6)c(N)nc54)[C@H](O)[C@@H]3O)[C@@H](O)[C@H]2O)c2nc(N)nc(O)c21 [Compound 11, m^7GpCH2ppG-N1-5FAM] | –
